According to article PMC7187627 (Antimicrobial Agents and Chemotherapy, 2019):
Entries after “also recorded” stand apart in the source; their conditions may differ. Like-named read-outs stand apart in the source and are kept apart here.

How the values were obtained:
[1] = Plasma pharmacokinetics, multiple-ascending-dose phase 1 study; type: in vivo, human; conditions: for RAUC (accumulation ratio for AUC) / RCmax (accumulation ratio for Cmax): day 10 vs day 1; for half-life / Cmax / Vd/F / Tmax / AUC(0-t) / AUC: human, plasma; for Vd/F: read-out: Vz/F,ss
Protocol: This study was conducted in full accordance with the Declaration of Helsinki and good clinical practices (GCP) at Quintiles Phase One Services in Overland Park, KS. Subjects were randomized in a 4:1 fashion (8 active:2 placebo) in each cohort to receive 200 mg, 400 mg, or 600 mg of CRS3123 or matching placebo every 12 h for 10 days (https://clinicaltrials.gov/ct2/show/NCT02106338). Subjects fasted 1 h before and 2 h after administration of the study product with a minimum of 8 oz. (240 ml) of water. Water and noncaffeinated drinks (except grapefruit juice) during the study were not restricted. Informed consent was obtained before any study-related procedures and clinical evaluations were performed. All 30 randomized subjects completed the study; 24 subjects received CRS3123 and 6 subjects received placebo. There were no premature withdrawals or discontinuations.
After a screening period of up to 35 days, eligible subjects were admitted to the study center for baseline evaluations on day −1. On the morning of day 1, eligible subjects were randomized to receive either the study drug or placebo orally every 12 h through day 10. Subjects remained inpatient at the study center until discharge on day 12. During the inpatient period, subjects were monitored for safety and pharmacokinetics (PK). Subjects were followed for 2 additional outpatient visits at the study center, on days 18 ± 2 and 29 ± 2.
PK method development, validation, and sample testing for plasma, feces, and urine were performed at KCAS, LLC (Shawnee, KS). Plasma, urine, and fecal concentrations of CRS3123 were determined by means of validated, sensitive, and specific high-performance liquid chromatography/tandem mass spectrometric (HPLC-MS/MS) assays. The lower limits of quantification of CRS3123 in plasma, feces, and urine were 10.0 ng/ml, 60.0 ng/g, and 100.0 ng/ml, respectively. The validated urine PK assay measured total free CSR3123. Since the majority of urinary CRS3123 was excreted as glucuronide conjugates ([32]), an enzymatic cleavage step using glucuronidase was added to the process to convert the glucuronide conjugates to free CRS3123 for the urine analysis.
The PK population consisted of all subjects who received active study drug (CRS3123) and had at least one measured CRS3123 concentration at a scheduled PK time point after the start of study drug administration.
Pharmacokinetic parameters for plasma were derived using noncompartmental methods with Phoenix WinNonlin version 6.4 (Pharsight Corporation, Certara L.P., Princeton, NJ). PK parameters for urine and feces were derived using SAS version 9.4 (SAS Institute, Inc., Cary, NC). All statistical calculations and reporting were performed using SAS version 9.4. Graphics were prepared with SAS version 9.4 or SigmaPlot 12.5 (Systat Software, Inc., San Jose, CA).
(i) Plasma PK. Plasma concentrations of CRS3123 throughout the 12-h dosing interval on PK days (day 1 and day 10) were summarized using descriptive statistics for each treatment.
One-way analysis of variance (ANOVA) models were used to assess any differences in appropriate PK parameters between adjacent dose levels following a single dose (day 1) and multiple doses (day 10). An ANOVA model on the log-transformed PK parameters (AUC0–12 and Cmax on day 1; AUC0–tau and Cmax on day 10) with fixed effect for treatment was performed separately for the single-dose analysis and multiple-dose analysis. From these models, the least-squares (LS) means together with 95% confidence intervals (Cis) for each dose and the LS means with corresponding 90% CIs for all adjacent dose pairs were calculated. Transformed back from the logarithmic scale, geometric LS means with corresponding 90% CIs were provided for each dose and adjacent dose ratios following both single and multiple dosing. PK accumulation was presented using descriptive statistics, and achievement of steady state was assessed graphically. […]

[2] = test system: C. difficile; set-up: method as in PMID 19258353, PMID 19251726; conditions: in vivo model of CDI, compared with vancomycin; cited from earlier work
[3] = 200 mg Q12h, day 10, geometric mean
[4] = 400 mg Q12h, day 10, geometric mean
[5] = 600 mg Q12h, day 10, geometric mean

## O=c1cc(NCCCN[C@@H]2CCOc3c(Br)cc(Br)cc32)[nH]c2ccsc12 [CRS3123]
[1]; [3]
  CL/F,ss: 80.2 L/h
  Plasma Cmin,ss: 85.2 ng/mL
[1]; 200 mg Q12h, day 10, median
  CL/F,ss: 82.0 L/h
  Plasma Cmin,ss: 76.2 ng/mL
[1]; 200 mg Q12h, geometric mean
  RAUC (accumulation ratio for AUC): 1.61
  RCmax (accumulation ratio for Cmax): 1.34
[1]; 200 mg Q12h, median
  RAUC (accumulation ratio for AUC): 1.54
  RCmax (accumulation ratio for Cmax): 1.11
[1]; 200 mg Q12h oral, day 1, median (minimum, maximum)
  Plasma t1/2: 3.0 (2.7, 3.7) h
[1]; 200 mg Q12h oral, day 10, median (minimum, maximum)
  Plasma t1/2,ss: 4.6 (4.1, 7.0) h
[1]; [4]
  CL/F,ss: 125 L/h
  Plasma Cmin,ss: 112 ng/mL
[1]; 400 mg Q12h, day 10, median
  CL/F,ss: 121 L/h
  Plasma Cmin,ss: 122 ng/mL
[1]; 400 mg Q12h, geometric mean
  RAUC (accumulation ratio for AUC): 1.37
  RCmax (accumulation ratio for Cmax): 1.22
[1]; 400 mg Q12h, median
  RAUC (accumulation ratio for AUC): 1.21
  RCmax (accumulation ratio for Cmax): 1.19
[1]; 400 mg Q12h oral, day 1, median (minimum, maximum)
  Plasma t1/2: 3.6 (2.9, 4.3) h
[1]; 400 mg Q12h oral, day 10, median (minimum, maximum)
  Plasma t1/2,ss: 5.0 (3.4, 7.7) h
[1]; [5]
  CL/F,ss: 149 L/h
  Plasma Cmin,ss: 160 ng/mL
[1]; 600 mg Q12h, day 10, median
  CL/F,ss: 162 L/h
  Plasma Cmin,ss: 161 ng/mL
[1]; 600 mg Q12h, geometric mean
  RAUC (accumulation ratio for AUC): 1.13
  RCmax (accumulation ratio for Cmax): 1.12
[1]; 600 mg Q12h, median
  RAUC (accumulation ratio for AUC): 1.15
  RCmax (accumulation ratio for Cmax): 1.05
[1]; 600 mg Q12h oral, day 1, median (minimum, maximum)
  Plasma t1/2: 2.9 (2.6, 4.0) h
[1]; 200 to 600 mg twice daily
  systemic uptake after oral dosing: limited but detectable systemic uptake
[1]; 200 to 600 mg, day 1 and day 10
  dose proportionality of plasma exposure: less than dose proportional
[1]; 10 days twice daily, trough concentration profiles
  accumulation in plasma following multiple twice-daily dosing: minimal accumulation; also recorded: essentially no accumulation
[1]; day 1 and day 10, 200 to 600 mg
  power model slope (β) estimates for AUC and Cmax: well below one
[1]; first dose, 200 mg to 600 mg
  increase of geometric mean AUC0–12 with a 3-fold increase in dose: approximately 2.3 fold
  increase of geometric mean Cmax with a 3-fold increase in dose: ~1.9 fold
[1]; oral, 200 mg, 200 mg Q12h, day 1, geometric mean, read-out: Plasma t1/2 (converted)
  half-life: 3.01 h
[1]; oral, 200 mg, 200 mg Q12h, day 1, median, read-out: Plasma Cmax
  Cmax: 342 ng/mL
[1]; oral, 200 mg, 200 mg Q12h, day 10, geometric mean, read-out: Plasma t1/2,ss (converted)
  half-life: 4.71 h
[1]; oral, 200 mg, 200 mg Q12h, day 10, geometric mean
  Vd/F: 591 L
[1]; oral, 200 mg, 200 mg Q12h, day 10, median, read-out: Plasma Cmax,ss
  Cmax: 492 ng/mL
[1]; oral, 200 mg, 200 mg Q12h, day 10, median
  Vd/F: 578 L
[1]; oral, 400 mg, 400 mg Q12h, day 1, geometric mean, read-out: Plasma t1/2 (converted)
  half-life: 3.53 h
[1]; oral, 400 mg, 400 mg Q12h, day 1, median, read-out: Plasma Cmax
  Cmax: 504 ng/mL
[1]; oral, 400 mg, 400 mg Q12h, day 10, geometric mean, read-out: Plasma t1/2,ss (converted)
  half-life: 5.19 h
[1]; oral, 400 mg, 400 mg Q12h, day 10, geometric mean
  Vd/F: 937 L
[1]; oral, 400 mg, 400 mg Q12h, day 10, median, read-out: Plasma Cmax,ss
  Cmax: 603 ng/mL
[1]; oral, 400 mg, 400 mg Q12h, day 10, median
  Vd/F: 917 L
[1]; oral, 600 mg, 600 mg Q12h, day 1, geometric mean, read-out: Plasma t1/2 (converted)
  half-life: 3.04 h
[1]; oral, 600 mg, 600 mg Q12h, day 1, median, read-out: Plasma Cmax
  Cmax: 642 ng/mL
[1]; oral, 600 mg, 600 mg Q12h, day 10, geometric mean, read-out: Plasma t1/2,ss (converted)
  half-life: 6.32 h
[1]; oral, 600 mg, 600 mg Q12h, day 10, geometric mean
  Vd/F: 1400 L
[1]; oral, 600 mg, 600 mg Q12h, day 10, median, read-out: Plasma Cmax,ss
  Cmax: 674 ng/mL
[1]; oral, 600 mg, 600 mg Q12h, day 10, median
  Vd/F: 1410 L
[1]; oral, 600 mg, after first dose, day 1, range across the 3 dose groups (200, 400, 600 mg), read-out: median time to maximum concentration (Tmax)
  Tmax: 7200 to 10800 s
[1]; oral, after 10 days twice-daily, range across the three dose groups, read-out: geometric mean t1/2,ss
  half-life: 5 to 6 h
[1]; oral, after 10 days twice-daily, range across the three dose groups, read-out: median Tmax at steady state (Tmax,ss)
  Tmax: 3600 to 7200 s
[1]; oral, after first dose, day 1, range across the 3 dose groups, read-out: geometric mean half-life (t1/2)
  half-life: 3 to 4 h
[1]; oral, 200 mg Q12h, day 1, median, read-out: Plasma AUC(0-12)
  AUC(0-t): 1230 ng·h/mL
[1]; oral, 200 mg Q12h, day 10, median, read-out: Plasma AUC(0-tau)
  AUC: 2470 ng·h/mL
[1]; oral, 400 mg Q12h, day 1, median, read-out: Plasma AUC(0-12)
  AUC(0-t): 2510 ng·h/mL
[1]; oral, 400 mg Q12h, day 10, median, read-out: Plasma AUC(0-tau)
  AUC: 3310 ng·h/mL
[1]; oral, 600 mg Q12h, day 1, median, read-out: Plasma AUC(0-12)
  AUC(0-t): 3630 ng·h/mL
[1]; oral, 600 mg Q12h, day 10, median, read-out: Plasma AUC(0-tau)
  AUC: 3740 ng·h/mL
[1]; po, 200 mg, 200 mg Q12h oral, day 1, geometric mean (%CV), read-out: Plasma Cmax
  Cmax: 352 ng/mL
[1]; po, 200 mg, 200 mg Q12h oral, day 1, median (minimum, maximum), read-out: Plasma Tmax
  Tmax: 7200 s
[1]; po, 200 mg, 200 mg Q12h oral, day 1, median (minimum, maximum), read-out: Plasma t1/2 (converted)
  half-life: 2.96 h
[1]; po, 200 mg, 200 mg Q12h oral, day 10, geometric mean (%CV), read-out: Plasma Cmax,ss
  Cmax: 470 ng/mL
[1]; po, 200 mg, 200 mg Q12h oral, day 10, median (minimum, maximum), read-out: Plasma Tmax,ss
  Tmax: 5400 s
[1]; po, 200 mg, 200 mg Q12h oral, day 10, median (minimum, maximum), read-out: Plasma t1/2,ss (converted)
  half-life: 4.59 h
[1]; po, 400 mg, 400 mg Q12h oral, day 1, geometric mean (%CV), read-out: Plasma Cmax
  Cmax: 507 ng/mL
[1]; po, 400 mg, 400 mg Q12h oral, day 1, median (minimum, maximum), read-out: Plasma Tmax
  Tmax: 10800 s
[1]; po, 400 mg, 400 mg Q12h oral, day 1, median (minimum, maximum), read-out: Plasma t1/2 (converted)
  half-life: 3.61 h
[1]; po, 400 mg, 400 mg Q12h oral, day 10, geometric mean (%CV), read-out: Plasma Cmax,ss
  Cmax: 615 ng/mL
[1]; po, 400 mg, 400 mg Q12h oral, day 10, median (minimum, maximum), read-out: Plasma Tmax,ss
  Tmax: 7200 s
[1]; po, 400 mg, 400 mg Q12h oral, day 10, median (minimum, maximum), read-out: Plasma t1/2,ss (converted)
  half-life: 5.01 h
[1]; po, 600 mg, 600 mg Q12h oral, day 1, geometric mean (%CV), read-out: Plasma Cmax
  Cmax: 654 ng/mL
[1]; po, 600 mg, 600 mg Q12h oral, day 1, median (minimum, maximum), read-out: Plasma Tmax
  Tmax: 7200 s
[1]; po, 600 mg, 600 mg Q12h oral, day 1, median (minimum, maximum), read-out: Plasma t1/2 (converted)
  half-life: 2.85 h
[1]; po, 600 mg, 600 mg Q12h oral, day 10, geometric mean (%CV), read-out: Plasma Cmax,ss
  Cmax: 731 ng/mL
[1]; po, 600 mg, 600 mg Q12h oral, day 10, median (minimum, maximum), read-out: Plasma Tmax,ss
  Tmax: 3600 s
[1]; po, 600 mg, 600 mg Q12h oral, day 10, median (minimum, maximum), read-out: Plasma t1/2,ss (converted)
  half-life: 6.1 h
[1]; 200 mg Q12h oral, day 1, geometric mean (%CV), read-out: Plasma AUC (AUC0–12)
  AUC(0-t): 1550 ng·h/mL
[1]; 200 mg Q12h oral, day 10, geometric mean (%CV), read-out: Plasma AUC (AUC0–tau)
  AUC: 2500 ng·h/mL
[1]; 400 mg Q12h oral, day 1, geometric mean (%CV), read-out: Plasma AUC (AUC0–12)
  AUC(0-t): 2340 ng·h/mL
[1]; 400 mg Q12h oral, day 10, geometric mean (%CV), read-out: Plasma AUC (AUC0–tau)
  AUC: 3200 ng·h/mL
[1]; 600 mg Q12h oral, day 1, geometric mean (%CV), read-out: Plasma AUC (AUC0–12)
  AUC(0-t): 3560 ng·h/mL
[1]; 600 mg Q12h oral, day 10, geometric mean (%CV), read-out: Plasma AUC (AUC0–tau)
  AUC: 4030 ng·h/mL
[2]
  protection of hamsters against recurrence: superior to vancomycin
